Source: patent US12005120B2, “Galnac conjugated modified oligonucleotides as miR-122 inhibitor having HCV antiviral activity with reduced hyperbilirubinemia side-effect” (Regulus Therapeutics Inc., priority 2018, dated 2024)
Like-named read-outs stand apart in the source and are kept apart here.

Legend:
HCV GT1b replicon = experiment: HCV replicon assay (Huh7 cells, luciferase reporter); assay type: cell-based, HCV genotype 1b
Text: An HCV replicon assay was used to determine the ability of anti-miR-122 compounds to inhibit the replication of HCV genotype 1b. In this assay, test compounds are introduced into Huh7 cells stably transfected with a HCV GT1b replicon containing a luciferase reporter gene. The luciferase reporter is used as an indirect measure of HCV replication. While a GalNAc-conjugated compound is expected to be preferable for treatment of HCV infection, due to the enhanced delivery to hepatocytes, some unconjugated compounds were tested.
Selected compounds were tested at nine concentrations ranging from 0.015 uM to 100 uM. GS-7977 (sofosbuvir) was included as a positive control. Cells were plated into 96-well plates at a density of 8,000 cells per well. Compound was added to the cells for a period of 72 hours. Luminescent signal in the supernatant was detected using the Bright-Glo reagent, and used to calculate the antiviral activity of each compound. The CellTiter-Fluor reagent was used to assess cell viability. The EC50 (concentration at which 50% inhibition was observed) was calculated.

cholesterol = experiment: In vivo potency: cholesterol reduction; conditions: single subcutaneous dose (doses in umol/kg), blood after 7 days
Procedure: (§1) Only GalNAc-conjugated compounds were tested in this assay. Compounds were administered at molar equivalents with regard to the anti-miR portion of the compound. A single, subcutaneous dose of RG-101 was administered subcutaneously at doses ranging from 0.004 to 1.116 umol/kg. Other compounds were administered in a single subcutaneous dose at doses ranging from 0.006 to 1.942 umol/kg. After 7 days the study was terminated. Liver tissue was collected for measurement of ALDOA mRNA and drug levels. Kidney tissue was collected for measurement of drug levels. Blood was collected for measurement of cholesterol.

miR-122 [1] = experiment: In vivo potency: liver ALDOA mRNA derepression; conditions: single subcutaneous dose, liver after 7 days; for ALDOA derepression ED50 Expt #1: fold change in ALDOA mRNA relative to saline
Procedure: Inhibition of miR-122 leads to an increase in ALDOA expression, thus ALDOA mRNA levels can be used to measure miR-122 inhibitory activity in vivo.
as §1
ALDOA mRNA levels were measured, by quantitative PCR, in RNA isolated from liver. The fold change in ALDOA mRNA, relative to saline, was used to calculate an ED50 (umol/kg) for each compound (“ND” indicates “not determined), as shown in Table 4.

MRP2 transporter = target: T1, MRP2 transporter (Homo sapiens, UniProt Q92887); experiment: In vitro MRP2 transporter assay (inside-out membrane vesicles, [3H]-estradiol-17β-glucuronide); assay type: in vitro ADME
T1 construct: expressed in transfected cells; host or cells: insect cells (transiently transfected); inside-out membrane vesicles
T1 sequence (Q92887 whole entry): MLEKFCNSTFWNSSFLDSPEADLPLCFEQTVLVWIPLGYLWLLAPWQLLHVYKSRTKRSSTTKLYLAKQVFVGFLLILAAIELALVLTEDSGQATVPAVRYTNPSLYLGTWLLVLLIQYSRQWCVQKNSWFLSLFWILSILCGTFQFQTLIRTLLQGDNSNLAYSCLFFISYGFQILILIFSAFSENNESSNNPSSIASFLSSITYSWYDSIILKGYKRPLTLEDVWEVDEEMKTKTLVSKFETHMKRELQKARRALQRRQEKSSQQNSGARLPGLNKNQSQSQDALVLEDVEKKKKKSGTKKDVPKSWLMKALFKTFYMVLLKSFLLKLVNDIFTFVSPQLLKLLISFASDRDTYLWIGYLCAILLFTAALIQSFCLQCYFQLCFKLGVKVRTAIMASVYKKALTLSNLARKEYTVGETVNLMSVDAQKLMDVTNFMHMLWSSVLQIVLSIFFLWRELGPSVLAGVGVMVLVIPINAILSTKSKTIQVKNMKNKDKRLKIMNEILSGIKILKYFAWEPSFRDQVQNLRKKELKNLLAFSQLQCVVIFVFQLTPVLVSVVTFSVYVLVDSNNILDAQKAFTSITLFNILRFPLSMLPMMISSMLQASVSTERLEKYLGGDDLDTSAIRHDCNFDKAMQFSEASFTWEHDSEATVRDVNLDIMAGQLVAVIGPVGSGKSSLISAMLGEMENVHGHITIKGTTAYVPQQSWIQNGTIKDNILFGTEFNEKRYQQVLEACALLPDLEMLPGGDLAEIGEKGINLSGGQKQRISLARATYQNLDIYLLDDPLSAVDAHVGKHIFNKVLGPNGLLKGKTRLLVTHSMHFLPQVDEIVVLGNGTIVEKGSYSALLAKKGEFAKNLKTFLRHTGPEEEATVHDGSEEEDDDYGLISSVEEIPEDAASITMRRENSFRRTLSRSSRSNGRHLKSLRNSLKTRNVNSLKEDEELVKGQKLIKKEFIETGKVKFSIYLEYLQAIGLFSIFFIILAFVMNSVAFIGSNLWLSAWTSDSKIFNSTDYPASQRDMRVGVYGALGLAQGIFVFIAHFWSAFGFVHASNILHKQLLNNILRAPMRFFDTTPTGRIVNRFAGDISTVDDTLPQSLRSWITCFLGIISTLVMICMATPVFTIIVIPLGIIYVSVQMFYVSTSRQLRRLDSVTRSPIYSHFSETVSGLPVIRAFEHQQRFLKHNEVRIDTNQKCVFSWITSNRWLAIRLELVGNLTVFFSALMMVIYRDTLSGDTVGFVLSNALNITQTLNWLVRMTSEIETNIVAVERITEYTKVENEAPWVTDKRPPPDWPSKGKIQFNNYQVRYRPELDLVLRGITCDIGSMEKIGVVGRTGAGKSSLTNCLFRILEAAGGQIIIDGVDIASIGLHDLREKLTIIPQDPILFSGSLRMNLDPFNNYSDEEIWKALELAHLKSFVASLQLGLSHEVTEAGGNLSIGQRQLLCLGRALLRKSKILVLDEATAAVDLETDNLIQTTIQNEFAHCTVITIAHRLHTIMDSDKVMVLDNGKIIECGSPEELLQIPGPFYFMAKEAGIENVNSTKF
Procedure: To test the hypothesis that RG-101 was interfering with MRP2 transporter activity, an in vitro assay was performed per methods known in the art (see, for example, Vermeer et al., Drug Metab. Dispos., 2016, 44(3):453-9). In this assay, an efflux transporter-expressing vesicle is used to evaluate if a drug is a substrate or inhibitor of a transporter. Inside-out membrane vesicles are prepared from insect cells transiently transfected with a single efflux transporter, in this case MRP2. As the vesicles are in an inside-out orientation, the MRP2 transporter pumps radiolabeled substrate, [3H]-estradiol-17β-glucuronide, in an ATP-dependent manner, into the vesicles, and the accumulation of radiolabeled substrate inside the vesicle is measured. If a compound is an MRP2 transport inhibitor, the accumulation of radiolabeled substrate will be reduced relative to control samples. The inhibitory effect of the compound is evaluated by determining the IC50, the concentration resulting in 50% inhibition of transporter-mediated uptake of the radiolabeled substrate.
The in vitro MRP2 assay was performed for RG-101. Both RG-101, and RG1649, the unconjugated anti-miR of RG-101, were tested at concentrations of 0, 0.1, 0.3, 1, 3, 10, 30, and 100 uM. […] Thus, RG-101 inhibited the MPR2 transporter in this assay.
The MRP2 assay was performed for anti-miR-122 compounds selected based on potency in the HCV replicon assay and structural diversity.

IFIT = experiment: In vivo safety: liver expression of interferon-inducible gene IFIT
Procedure: The compounds that met the criteria for in vivo potency were also tested for safety. The capacity of a compound to trigger a pro-inflammatory response was assessed by measuring the expression of the interferon-inducible gene IFIT in the liver. Additionally, the level of ALT following administration of a compound was also measured.

miR-122 [2] = experiment: Free uptake in primary human hepatocyte 3D spheroids, ALDOA by RT-PCR; assay type: cell-based
HCV genotype 1a = experiment: Human chimeric liver mouse model of HCV infection, serum HCV RNA; assay type: in vivo, mice; conditions: RG6650 60 mg/kg, single administration
Text: Due to host-pathogen specificity, HCV can only infect humans and chimpanzees. As such, smaller species, such as mice, that are typically used for experimental in vivo studies cannot be infected with HCV for testing of candidate agents for the treatment of HCV infection. To address this problem, human liver chimeric mouse models may be utilized (see, e.g., Bissig et al., Proc Nat Acad Sci US A, 2007, 104:20507-20511; Bissig et al., J Clin Invest., 2010, 120: 924-930). In this model, the livers of immunodeficient mice are repopulated with human hepatocytes, resulting in a chimeric liver in which most of the hepatocytes are human hepatocytes. The mice are then infected with HCV and treated with anti-HCV agents. This mouse model is commercially available from, for example, PhoenixBio.
Anti-miR-122 compounds were tested in a human chimeric liver mouse model of HCV infection. The livers of immunodeficient mice were repopulated with human hepatocytes, resulting in a chimeric liver in which most of the hepatocytes are human hepatocytes. Six weeks following inoculation with HCV genotype 1a, a baseline viral titer was obtained for each animal included in the study.
Groups of four animals each were treated with PBS, RG-101 at a dose of 45 mg/kg, or RG6650 at a dose of 60 mg/kg. Blood was collected on Days 3, 7, 10, 14, 21, 28, 35, 42, and 49. The study was terminated on day 49.

miR-122 [3] = experiment: Pharmacodynamic activity in liver after oral or s.c. administration (ALDOA); assay type: in vivo, mice; conditions: 30 mg/kg s.c. in PBS, single dose, four days later
Procedure: An experiment was performed to determine whether oral administration of RG6650 would results in pharmacodynamic modulation of miR-122 in liver. Also tested was RG7443, the unconjugated anti-miR of RG6650. While an unconjugated anti-miR-122 is not as effective as a GalNAc-conjugated for the inhibition of miR-122 in the treatment of HCV, it was included for comparison in the oral administration study.
(§2) Anti-miR compounds were delivered in PBS for subcutaneous administration. Orally administered anti-miR compounds were prepared in a solution of PBS and 0.3 M sodium bicarbonate (BC) was added to a pH of 9.5. For oral dosing, animals were fasted for 12 hours prior. For all treatment groups, mice were administered a single dose and sacrificed four days later. Liver tissue was collected for pharmacodynamic and pharmacokinetic analyses. RNA was isolated from liver and kidney. […] in the liver was measured.

miR-122 [4] = experiment: Onset of action: liver ALDOA mRNA de-repression; assay type: in vivo, mice; conditions: 0.014 to 1.117 umol/kg; liver 1, 3, 7 or 14 days after administration; relative to RG2634
Procedure: To determine whether RG6650 and RG2634 could be distinguished by onset of action, groups of mice were treated with compound at doses ranging from 0.014 to 1.117 umol/kg. Liver tissue was collected from groups of 4 to 5 mice 1, 3, 7, or 14 days following administration. RNA was isolated and ALDOA mRNA was measured.

[5] = Anti-miR amounts in liver tissue after oral or s.c. administration; assay type: in vivo, mice; conditions: single dose, four days later
Procedure: as §2

HCV = conditions: chronic treatment naïve HCV infected subjects; cited from earlier work
[6] = MRP2 transporter assay, Expt #2, read-out: IC50 uM Expt #2
[7] = 72 hours, Expt #1, read-out: EC50 uM Expt #1

Molecule | Cholesterol reduction ED50 Expt #1 (cholesterol) | ALDOA derepression ED50 Expt #1 (miR-122 [1]) [µmol/kg] | IC50 (MRP2 transporter; [6]) [µM] | EC50 (HCV GT1b replicon; [7]) [µM] | also measured
CC(C)OC(=O)[C@H](C)N[P@](=O)(OC[C@H]1O[C@@H](n2ccc(=O)[nH]c2=O)[C@](C)(F)[C@@H]1O)Oc1ccccc1 [GS-7977, sofosbuvir, reference compound] | – | – | – | – | EC50 (HCV GT1b replicon; Hepatitis C virus, GT1B, Huh-7, 72 hours, Expt #1, read-out: EC50 uM Expt #1): 0.149 µM; EC50 (HCV GT1b replicon; Hepatitis C virus, GT1B, Huh-7, 72 hours, Expt #2, read-out: EC50 uM Expt #2): 0.098 µM
CSASCSASCSUSCSCS [RG2634] | 0.011 | 0.029 | > 100 | 22.5 | –
CSASCSASCSUSCSCS [RG497998] | – | – | – | 7.71 | –
CSASCSASCSUSCSCSAS [RG6234] | – | – | > 100 | 17.4 | –
CSASCS^POAS^POCS^POUS^POCSCSAS [RG6371] | 1.116 | 0.086 | – | 34.1 | –
CsASCSASCSUSCSCSAS [RG6370] | 0.0007 | 6.51 | > 100 | 60.9 | Expression of IFIT in the liver (pro-inflammatory response) (IFIT): increased the expression of IFIT
USCSACSACSTCSCS [RG6650] | – | – | – | – | Cholesterol reduction ED50 Expt #2 (cholesterol; Expt #2): 0.025; ALDOA derepression ED50 Expt #2 (miR-122 [1]; Expt #2): 0.091 µmol/kg; IC50 (MRP2 transporter; MRP2 transporter assay, Expt #1, read-out: IC50 uM Expt #1): > 100 µM; IC50 (MRP2 transporter; assay conducted multiple times, read-out: MRP2 IC50 range over multiple studies): > 100 µM; EC50 (HCV GT1b replicon; 72 hours, Expt #2, read-out: EC50 uM Expt #2): 11.3 µM; EC50 (miR-122 [2]; 3D PHH spheroids, three days treatment, read-out: EC50 (ALDOA levels)): 0.00207 µM; Decrease of EC50 by the GalNAc conjugate (miR-122 [2]; RG6650 compared to RG7443): ~1000 fold; Reduction in serum HCV RNA (HCV genotype 1a): greater than 2 log; Viral titer, serum HCV RNA (HCV genotype 1a; RG-101 45 mg/kg, up to day 49, FIG. 1): significant reductions in viral titer; Liver PD Sig (miR-122 [3]): 1.704; Onset of action by ALDOA mRNA de-repression (miR-122 [4]): increased de-repression of ALDOA mRNA at a lower dose and earlier time point
USCSASCSASCSUSCSCS [RG3054] | .08152 | – | > 100 | > 100 | Expression of IFIT in the liver (pro-inflammatory response) (IFIT): increased the expression of IFIT
USCSAS^POCS^POAS^POCS^POUSCSCS [RG6372] | 0.8088 | 0.028 | – | > 100 | –
UsCsACsACsTCsCs [RG7443] | – | – | – | – | Liver Mean (anti-miR amount) ([5]; 30 mg/kg s.c. in PBS): 1.48 µg/g; Liver Mean (anti-miR amount) ([5]; 100 mg/kg p.o. in BC): <0.4 µg/g; Liver PD Sig (miR-122 [3]): 1.945
miravirsen | – | – | – | – | Serum HCV RNA (HCV): reduction in serum HCV RNA
